Experimental data published in patent publication US20250368932A1, “SYSTEM FOR MIMICKING CELLULAR MICROENVIRONMENT AND METHOD FOR EVALUATING CELL DEVELOPMENT OR DRUG THERAPY EFFECTIVENESS USING THE SAME” (Anivance AI Corporation, priority 2024, published 2025).

Tests used:
[1] = tested on: Non-Small Cell Lung Cancer Tumor Spheroids (co-cultured cell spheroids, A549 / HFL-1); assay: Morphology and area of tumor spheroids after drug administration on the chip (bright-field, quantified); assay type: cell-based, human
Protocol: In some embodiments, the A549 cell line of the present disclosure is purchased from ATCC, and is commonly used for developing lung cancer drugs and drug delivery experiments. The A549 cells are cultured in F12K cell culture medium (10-025, Corning) supplemented with 10% fetal bovine serum (FBS) (35-076-EV, Corning). The cells are taken out from the liquid nitrogen tank and thawed in a […] water bath. The cell suspension in the cryovial is extracted and mixed with 1 mL of cell culture medium, followed by adding it to a T-75 cell culture flask containing 9 mL of cell culture medium for uniform mixing and culture. When cell confluence reaches 80%, cell passaging is carried out. Cells are first rinsed with DPBS and then detached from the T-75 cell culture flask using trypsin. The detached A549 cells are transferred to a 15 mL centrifuge tube, and centrifuged at 1000 rpm for 5 minutes at 24° C. After centrifugation, the cells are concentrated at the bottom of the centrifuge tube, and the supernatant is aspirated. Subsequently, 500 μL of cell culture medium is added, mixed thoroughly, and the cells are resuspended. A 20 μL cell suspension is then withdrawn, and the cell count is determined using an automatic cell counter, which is used to estimate the total number of cells in the centrifuge tube. The estimated number of cells is then seeded back into the T-75 cell culture flask.
In some embodiments, the HFL-1 cell line of the present disclosure is purchased from BCRC, and is commonly used for co-culture and cytotoxicity studies. The cells are cultured in F12K cell culture medium (10-025, Corning) supplemented with 10% fetal bovine serum (FBS) (35-076-EV, Corning). The cells are removed from the liquid nitrogen tank and thawed in a 37° C. water bath. […] A 20 μL cell suspension is then withdrawn, and the cell count is determined using an automatic cell counter to estimate the total number of cells in the centrifuge tube. […]

[2] = tested on: cell spheroids (A549); assay: Effect of TGF-β on spreading and metastasis of cell spheroids cultured on the hydrogel; assay type: cell-based, human
Protocol: In some embodiments, the present disclosure uses Ultra-Low Attachment (ULA) 96-well plates (7007, Corning) to conduct in vitro 3D cell spheroid cultures. The ULA 96-well plates feature an extremely low attachment surface that minimizes cell adhesion and protein absorption, facilitating the formation of cell spheroids. In each well of the ULA 96-well plate, 1000 to 8000 cells (with each well containing 200 μL of cell culture medium) are added, and the morphological changes of the cells are observed. After four days of cell seeding, compact cell spheroids are formed.
In some embodiments, before seeding cell spheroids, the chip is irradiated with ultraviolet (UV) light for 30 minutes and washed with filtered 75% alcohol, 95% alcohol, and deionized water, respectively. […]
In some embodiments, Image-J software is used to perform quantitative analysis of the cell spheroid spreading area. […] The spreading area of cell spheroids is then quantitatively analyzed.
After culturing on the hydrogel for 48 hours, the development of the cell spheroids is observed using a fluorescence microscope. […] The original cell spheroids display red fluorescence indicating the expression of vimentin. […] “Top view” and “side view” refer to the respective perspectives, and the green fluorescence labels F-actin.

## COc1cccc2c1C(=O)c1c(O)c3c(c(O)c1C2=O)C[C@@](O)(C(=O)CO)C[C@@H]3O[C@H]1C[C@H](N)[C@H](O)[C@H](C)O1 [Dox]
[1]; Dox 0, 40, 90 and 320 μM, 48 hours, on chip, FIG. 10A/10B
  shape of cell spheroids after drug treatment: maintain their original shape
[1]; Dox 0, 40, 90 and 320 μM, FIG. 10C/10D
  area of tumor spheroids (quantitative analysis): no significant decrease
[1]; static tumor spheroids, single drug
  therapeutic effect on static tumor spheroids (summary): no therapeutic effect

## transforming growth factor-beta [TGF-β]
[2]; 20 ng/ml TGF-β, 48 hours on hydrogel, versus untreated, FIG. 3B/3C
  outward expansion and migration of cells in the cell spheroids (spreading area): increased outward expansion and migration range
[2]; prolonged TGF-β treatment, FIG. 3D
  structure of cell spheroids: disaggregate and expand outward
